Experiments:
[1] = tested on: ATP production in Hep3B cells; test: ATP production in Hep3B cells; assay type: cell-based, human; settings: for amount of ATP produced (FIG. 8): compound 10 μM, 24 hours, ratio to DMSO = 1; for increase of ATP concentration in cells relative to the normal level: at least in 3 hours
Description: The Hep3B cells were seeded at 1×10^4 cells/well to a 24-well cell culture plate and then cultured under normal oxygen (20% O2) for 24 hours. Each of 36 types of compounds (compounds #1 to 15, 17 to 31, and 34 to 39) was mixed at a concentration of 10 μM into RPMI1640 common medium 1. After further culture under normal oxygen (20% […]) for 3 hours, 6 hours, or 24 hours, the concentration of ATP produced in the medium was measured using ATP Assay Reagent of “Cells” (manufactured by Toyo B-Net Co., Ltd.) and GloMa 96 Microplate Luminometer (manufactured by Promega K.K.). Hep3B cells cultured in the absence of the compound (DMSO added [1%]) (“DMSO” of FIGS. 6 to 8) were used as a negative control. Hep3B cells cultured in the presence of HIF activators (FG-4592 [10 μM], DMOG [10 μM], 3,4-DHB [10 μM], and ciclopirox[10 μM]) (“FG”, “DMOG”, “34-DHB”, and “Ciclo”, respectively, of FIGS. 6 to 8) and Hep3B cells cultured in the presence of a transcriptional repressor GATA-specific inhibitor of erythropoietin (K7174 [10 μM]) (“K7174” of FIGS. 6 to 8) were used as positive controls.

[2] = tested on: mouse erythropoietin gene promoter; test: Luciferase reporter assay of erythropoietin gene promoter in Hep3B cells; assay type: cell-based; settings: for effect on erythropoietin gene promoter transcriptional activity compared with HIF activator FG-4592: compound 10 μM vs FG-4592 10 μM, 20% O2; for transcription level of the erythropoietin gene promoter: compound 10 μM, 20% O2, 48 hours, vs 20% O2/DMSO
Description: A plasmid vector HE-mPro-luc for luciferase assay on the promoter activity of the 5′ upstream transcriptional regulatory region of the mouse erythropoietin gene was prepared by cleaving, with restriction enzymes XbaI and SacI, a region having a length from −571 to +53 bp starting at the translation initiation site of exon 1 of the mouse erythropoietin gene, and inserting this region to a luciferase reporter vector pXP2 (Nordeen S K. BioTechniques. 6: […], 1988).
The Hep3B cells were adjusted to 10×10^4 cells/well in a 24-well cell culture plate and subcultured. Under microscopy, the Hep3B cells that reached a cell density of 70 to 80% were transfected with the plasmid DNA for luciferase reporter assay. The composition of a solution for transfection was prepared by mixing 2 μg of HE-mPro-luc, 50 ng of pRh-TK (manufactured by Promega K.K.), and 2 μl of Lipofectamine 2000 (manufactured by Invitrogen Corp.) with 100 μl of OptiMEM-I (manufactured by Life Technologies, Inc./GIBCO) per well, followed by incubation at room temperature for 20 minutes. The solution was added to the Hep3B cells in the 24-well cell culture plate preincubated in 0.5 ml of serum-free OptiMEM-I medium, and then incubated for 4 hours without serum and antibiotics under conditions of 37° C. and 5% CO2/20% O2. Then, the medium was replaced with RPMI1640 common medium 1 supplemented with each of 5 types of compounds (compounds #2, 4, 5, 18, and 21) at a concentration of 10 μM, followed by further incubation for 48 hours under conditions of 37° C. and 5% CO2/20% O2. Then, the medium was replaced with 0.5 ml of serum-free PBS, and the cells were gently washed, followed by the removal of PBS by suction. This operation was carried out twice. Then, 100 μl of passive lysis buffer (manufactured by Promega K.K.) was added thereto, and the cells were lysed by mixing at room temperature for 20 minutes. Hep3B cells cultured in the absence of the compound (DMSO added [1%]) (“20% O2/DMSO” of FIG. 3) were used as a negative control. Hep3B cells cultured in the presence of an HIF activator (FG-4592 [10 μM]) (“20% O2/FG4592” of FIG. 3) and Hep3B cells cultured under hypoxia (1% O2) conditions and in the absence of the compound (DMSO added [1%]) (“1% O2/DMSO” of FIG. 3) were used as positive controls.
Dual Luciferase Reporter Assay System (manufactured by Promega K.K.) was used in the luciferase reporter assay. The amounts of firefly and Renilla luciferases were measured using a luminometer Lumat LB9507 (manufactured by BERTHOLD TECHNOLOGIES GmbH & Co. KG). The amount of Fire fly luciferase was divided by the amount of Renilla luciferase to calculate the transcriptional activity of the erythropoietin gene.

[3] = tested on: mRNA expression of the erythropoietin gene; test: Quantitative PCR of erythropoietin mRNA in Hep3B cells; assay type: cell-based, human; settings: compound 10 μM, 20% O2, GAPDH internal standard
Description: Of the 5 types of compounds confirmed in Example 4 to be effective for promoting the transcriptional activity of the erythropoietin gene promoter, 4 types of compounds (compounds #2, 4, 5, and 21) were selected. From Hep3B cells cultured in RPMI1640 common medium 1 supplemented with each of these 4 types of compounds at a concentration of 10 μM, total RNA was extracted using TriPure Isolation Reagent (manufactured by F. Hoffmann La Roche AG) in a 6-well cell culture plate. Hep3B cells cultured in the absence of the compound (DMSO added) (“20% O2/DMSO” of FIG. 4) were used as a negative control. Hep3B cells cultured in the presence of a GATA-specific inhibitor (K7174 [10 μM]) (“20% O2/K7174” of FIG. 4) and Hep3B cells cultured under hypoxia (1% O2) conditions and in the absence of the compound (DMSO added [1%]) (“1% O2/DMSO” of FIG. 4) were used as positive controls.
The extracted RNA was used as a template to synthesize cDNA using SuperScript III RTS First-strand kit (manufactured by Invitrogen Corp.). Then, the expression of the erythropoietin mRNA was measured by quantitative PCR with GAPDH as an internal standard. The quantitative PCR was carried out using TaqMan® Gene Expression Assays (using GAPDH; Assay ID: Rn99999916_s1, and human erythropoietin; Assay ID: Hs00171267_ml TaqMan® probes [manufactured by Applied Biosystems Inc.]) and Step One Plus Real-Time PCR System (manufactured by Applied Biosystems Inc.).

Leigh cells = test: Cell death caused by oxidative stress (BSO) in Leigh syndrome patient fibroblasts; assay type: cell-based, human; settings: compound 10 μM, 4 days after BSO treatment
Description: In Examples 2 to 7 and Reference Example 1 below, an erythropoietin-producing human hepatocellular carcinoma cell Hep3B (obtained from ATCC [American Type Culture Collection]) was cultured and maintained under conditions of 5% CO2/20% O2 and 37° C. in an RPMI1640 (manufactured by Life Technologies, Inc./GIBCO) medium containing 100 U/mL penicillin (manufactured by Life Technologies, Inc./GIBCO), 100 μg/mL streptomycin (manufactured by Life Technologies, Inc./GIBCO), and 10% fetal bovine serum (FBS) (manufactured by Life Technologies, Inc./GIBCO) (hereinafter, referred to as “RPMI1640 common medium 1”). In Example 15 below, Leigh syndrome patients were subjected to skin biopsy to obtain skin fibroblast cells, which were then primarily cultured under conditions of 5% CO2/20% O2 and 37° C. in a DMEM low glucose (manufactured by Life Technologies, Inc./GIBCO) medium containing 100 U/mL penicillin (manufactured by Life Technologies, Inc./GIBCO), 100 μg/mL streptomycin (manufactured by Life Technologies, Inc./GIBCO), and 1% FBS (manufactured by Life Technologies, Inc./GIBCO) (hereinafter, referred to as “DMEM low glucose common medium”) to isolate cells (Leigh cells). In Example 13 below, a human kidney-derived cell line HK-2 (obtained from ATCC) was cultured and maintained under conditions of 5% CO2/20% O2 and 37° C. in a DMEM/F12 (manufactured by Life Technologies, Inc./GIBCO) medium containing 100 U/mL penicillin (manufactured by Life Technologies, Inc./GIBCO), 100 μg/mL streptomycin (manufactured by Life Technologies, Inc./GIBCO), and 10% fetal bovine serum (manufactured by Life Technologies, Inc./GIBCO) (hereinafter, referred to as “DMEM/F12 common medium”). In Example 14 below, a rat islet of Langerhans-derived cell line ISN-1e (kindly provided by Hisamitsu Ishihara, Nihon University School of Medicine) was cultured and maintained under conditions of 5% CO2/20% O2 and 37° C. in an RPMI1640 (manufactured by Life Technologies, Inc./GIBCO) medium containing 10 mM HEPES (manufactured by Sigma-Aldrich Corp.), 2 mM glutamine (manufactured by Sigma-Aldrich Corp.), 50 μM β-mercaptoethanol (manufactured by Sigma-Aldrich Corp.), 100 U/mL penicillin (manufactured by Life Technologies, Inc./GIBCO), 100 μg/mL streptomycin (manufactured by Life Technologies, Inc./GIBCO), and 10% FBS (manufactured by Life Technologies, Inc./GIBCO) (hereinafter, referred to as “RPMI1640 common medium 2”).
The Leigh cells were seeded at 4×10^4 cells/well to a 24-well cell culture plate and then cultured for 24 hours. The glutathione synthesis inhibitor BSO (L-buthionine sulphoximine) (manufactured by Sigma-Aldrich Corp.) was mixed at […] into a medium. After culture for 24 hours in the presence of BSO, each of 5 types of compounds (compounds #2, 4, 5, 21, and 35) was mixed at 10 μM into the medium. After culture for 4 days in the presence of these 5 types of compounds, the number of live cells was measured using Cell Counting Kit-8 (manufactured by Dojindo Laboratories) to calculate the survival rate of the cells (“BSO+#2”, “BSO+#4”, “BSO+#5”, “BSO+#21”, and “BSO+#35” of FIG. 17). […]

| melting point [°C] | SMILES | amount of ATP produced (FIG. 8) [1] | also measured |
| --- | --- | --- | --- |
| 86 to 92.7 | CCOc1ccc2[nH]cc(CC(=O)O)c2c1 [compound #37, 5-Ethoxy-3-indoleacetic acid] |  |  |
|  | CCCCn1cc(CC(=O)O)c2ccccc21 [compound #29, N-Butyl-3-indoleacetic acid] | enhance the amount of ATP produced |  |
|  | CCCCCCn1cc(CC(=O)O)c2ccccc21 [compound #30, N-Hexyl-3-indoleacetic acid] | enhance the amount of ATP produced |  |
|  | O=C(CC(C(=O)O)c1c[nH]c2ccccc12)c1ccc(Cl)cc1 (stereo not shown) [compound #2, 4-(4-Chlorophenyl)-2-(1H-indol-3-yl)-4-oxo-butanoic acid] |  | effect on erythropoietin gene promoter transcriptional activity compared with HIF activator FG-4592 [2]: superior to the effect of the existing HIF activator (FG-4592); transcription level of the erythropoietin gene promoter [2]: increase the transcription level; mRNA expression level of the erythropoietin gene [3]: increase the mRNA expression level; cell death of the Leigh cells by BSO (Leigh cells): efficiently suppress the cell death |
| 133.6 to 136.8 | CCCOc1ccc2[nH]cc(CC(=O)O)c2c1 [compound #38, 5-(1-Propoxy)-3-indoleacetic acid] | enhance the amount of ATP produced |  |
|  | CCn1cc(CC(=O)O)c2ccccc21 [compound #27, N-Ethyl-3-indoleacetic acid] | enhance the amount of ATP produced |  |
| 149 to 150 | O=C(CC(C(=O)O)c1c[nH]c2ccccc12)c1ccccc1 (stereo not shown) [compound #20, 4-Phenyl-2-(1H-indol-3-yl)-4-oxo-butanoic acid] |  |  |
| 139 to 141 | CCCn1cc(C(CC(=O)c2ccc(C)cc2C)C(=O)O)c2ccccc21 (stereo not shown) [compound #6, 4-(2,4-Dimethylphenyl)-2-(1-propyl-1H-indol-3-yl)-4-oxo-butanoic acid] |  |  |
|  | CCC(C)CCC(C(=O)O)c1c[nH]c2ccccc12 (stereo not drawn) [compound #18, α-(3-Methyl-1-pentyl)-3-indoleacetic acid] |  | effect on erythropoietin gene promoter transcriptional activity compared with HIF activator FG-4592 [2]: superior to the effect of the existing HIF activator (FG-4592); transcription level of the erythropoietin gene promoter [2]: increase the transcription level |
|  | COc1ccc2[nH]cc(CC(=O)O)c2c1 [compound #36, 5-Methoxy-3-indoleacetic acid] |  | increase of ATP concentration in cells relative to the normal level [1]: two or more times the normal level |

| SMILES | melting point [°C] | amount of ATP produced (FIG. 8) [1] | also measured |
| --- | --- | --- | --- |
| CCCCCOc1ccc2cccc(CC(=O)O)c2c1 [compound #34, α-(7-Pentoxy-1-naphthalenyl)-acetic acid] | 104 to 106 |  | increase of ATP concentration in cells relative to the normal level [1]: two or more times the normal level |
| CCCCOc1ccc2cccc(CC(=O)O)c2c1 [compound #33, α-(7-Butoxy-1-naphthalenyl)-acetic acid] | 102 to 104 |  |  |
| CCCCOc1ccc2[nH]cc(CC(=O)O)c2c1 [compound #39, 5-(1-Butoxy)-3-indoleacetic acid] | 137.8 to 141.1 |  |  |

— patent publication US10004718B2, “Erythropoietin expression promoter” (TOHOKU UNIVERSITY, priority 2012, dated 2018)
